According to patent US11541010B2, “Amphoteric liposomes comprising imino lipids” (BioNTech Delivery Technologies GmbH, priority 2009, dated 2023):
“Also recorded” adds a separate entry of the source.

Experiments:
Type in all cases: cell-based
HeLa cells [1] = assay: Serum resistant transfection, cationic lipids with phosphate lipid DOPA, HeLa IC50 (Example 15); conditions: liposomes of the cationic lipid in combination with phosphate lipid DOPA, PLK-1 siRNA
Protocol: (§1) HeLa cells were obtained from DSMZ (German Collection of Micro Organism and Cell Cultures) and maintained in DMFM (Gibco-Invitrogen) and supplemented with 10% FCS. The cells were plated at a density of 2.5×10^4 cells/ml and cultivated in 100 μl medium at 37° C. under 5% CO2. After 16 h, the liposomes containing siRNA were diluted and 10 μl were added to the cells to yield final concentrations between 0.4 to 100 nM Plk1 or scrambled siRNA; 10 μl dilution buffer were also added to untreated cells and into wells without cells. Cell culture dishes were incubated for 72 h at 37° C. under 5% CO2
(§2) Cell proliferation/viability was determined by using the CellTiter-Blue Cell Viability assay (Promega, US) according to the instructions of the supplier.
Series of liposomes having C/A ratios of either 0.75 or 1 were produced and loaded with siRNA as in Example 5. The cationic lipid components were CHOLGUA, CHIM, DC-CHOL, GUADACA, MPDACA, BADACA, PONA, DOTAP or DODAP. The anionic lipid was DOPA and the cholesterol content was 40 mol %, all lipid mixtures are identified in table 20. Liposomes were further supplied with 1.5 mol % DMPE-PEG2000 (Nippon Oils and Fats).
(§3) HeLa cells were grown and maintained as in Example 2 and mouse serum (SIGMA-Aldrich) was added directly to the cells for 120-min. Following that, the liposomes were added to the cells, incubation was continued for 72 h and cell viability was determined as above. The efficacy of transfection is expressed here as IC50 (in nM of siRNA) as in Example 5.

HeLa cells [2] = assay: Serum resistant transfection, DACA or cholesterol based cationic lipids with carboxyl lipids, HeLa (Example 14); conditions: for serum-resistant transfection of HeLa cells: liposomes of the cationic lipid with carboxyl lipid DOGS and cholesterol, PLK-1 siRNA, 10% mouse serum; for transfection of HeLa cells in the presence of mouse serum: liposomes of the cationic lipid with carboxyl lipids CHEMS, DMGS or DOGS, 20 or 40 mol % cholesterol
Protocol: All liposomes were loaded with PLK-1 siRNA, an oligonucleotide capable of inhibiting the production of the cell cycle kinase PLK-1 and successful transfection was measured by inhibition of cell viability of the test cells (see also Haupenthai et al., int. J. Cancer (2007), 121:206-210. Unspecific inhibition of the cell viability, that is, cytotoxic effects, were monitored by control preparations comprising a non-targeting siRNA of the same general composition and in the same amounts.
The transfection of cells was followed in regular cell culture medium or with the additional presence of 10% mouse serum, a potent inhibitor of cellular uptake for many amphoteric liposomes. The efficacy of transfection is expressed as IC50, the concentration needed to achieve a 50% inhibition of the cell viability.
The ratio between the IC50 in regular medium and the IC50 upon addition of mouse serum is used as a metric for the inhibition of the cellular uptake by mouse serum. This ratio is 5 or higher for liposomes without specific targeting properties. It is 5 or lower for the liposomes of this invention; that is liposomes comprising charged imino groups in combination with negatively charged lipids.
Series of liposomes having systematically varied ratios between the cationic and anionic lipid components were produced and loaded with siRNA as in Example 5. The cationic lipid components were CHOLGUA, CHIM, DC-CHOL, TC-CHOL, GUADACA, MPDACA, BADACA end PDAGA. The anionic lipids were CHEMS, DMGS or DOGS and the cholesterol content was either 20 or 40 mol %, all lipid mixtures are identified in the data tables. Liposomes having a ratio of the cationic: anionic lipid of 1 or greater (C/A>=1) were further supplied with 1.5 mol % DMPE-PEG2000 (Nippon Oils and Fats).
as §3, with “120 min.” for “120-min.”, “The highest concentrations of liposomes were 40 nM and 36 nM for experiments in the absence or presence of mouse serum, respectively. The” for “The”, “nM” for “nM of”

HeLa cells [3] = assay: Criticality of the guanido head group, HeLa proliferation IC50 with and without sera (Example 6); conditions: mixtures comprising an excess of the anionic lipid CHEMS, 20% cholesterol
Protocol: as §1, §2
Series of liposomes having systematically varied ratios between the cationic and anionic lipid components were produced and loaded with siRNA as in Example 5. The cationic lipid components were PONA, PONamine and PONammonium, the anionic lipid was CHEMS and the cholesterol content was fixed to 20 mol %. […]
HeLa cells were grown and maintained as in Example 2 and sera of human or mice origin (SIGMA-Aldrich) was added directly to the cells for 120 min. Following that, the liposomes were added to the cells in concentrations between 50 pM and 50 nM, incubation was continued for 72 h and cell viability was determined as above. […]

Row | SMILES | transfection of HeLa cells in the presence of serum (HeLa cells [1]) | serum-resistant transfection of HeLa cells (HeLa cells [2]) | transfection of HeLa cells in the presence of mouse serum (HeLa cells [2]) | transfection activity in the presence of sera (HeLa cells [3])
1 | CC(C)CCC[C@@H](C)[C@H]1CC[C@H]2[C@@H]3CC=C4C[C@@H](OC(=O)NCCNC(=N)N)CC[C@]4(C)[C@H]3CC[C@]12C [CHOLGUA] | remain potent transfectants even in the presence of mouse serum | best serum-resistant transfection | remain potent transfectants even in the presence of mouse serum | –
2 | CCCCCCCC/C=C/CCCCCCCC(=O)NC(CCNC(=N)N)C(=O)NCCCCCCCCCCCCCCCC (centres unmarked) [PONA, palmitoyl-oleoyl-nor-arginine] | resulted in serum-resistant transfection; also recorded: remain potent transfectants even in the presence of mouse serum | – | remain potent transfectants even in the presence of mouse serum | –
3 | CC(C)CCC[C@@H](C)[C@H]1CC[C@H]2[C@@H]3CC=C4C[C@@H](OC(=O)NCCN(C)C)CC[C@]4(C)[C@H]3CC[C@]12C [DC-CHOL, reference compound] | did not result in any transfection in the presence of serum | still active in the absence, but no longer in the presence of mouse serum | – | –
4 | CCCCCCCC/C=C/CCCCCCCC(=O)NC(CC[N+](C)(C)C)C(=O)NCCCCCCCCCCCCCCCC (centres unmarked) [PONammonium] | not PONammonium resulted in serum-resistant transfection | – | – | remained inactive in the presence of sera
5 | CCCCCCCC/C=C/CCCCCCCC(=O)NC(CCN)C(=O)NCCCCCCCCCCCCCCCC (centres unmarked) [PONamine] | resulted in serum-resistant transfection | – | – | –
6 | CC(C)CCC[C@@H](C)[C@H]1CC[C@H]2[C@@H]3CCC4CC(OC(=O)NCCCn5ccnc5)CC[C@]4(C)[C@H]3CC[C@]12C (some centres unmarked) [CHIM, reference compound] | did not result in any transfection in the presence of serum | – | – | –
